{"source": "patent EP4759807A1", "about": "“PROTEOLYSIS TARGETING CHIMERA COMPOUND FOR DEGRADING IRAK4 AND USE THEREOF” (Shenzhen Zhongge Biological Technology Co., Ltd., priority 2023, dated 2025)", "key": {"IRAK4 [1]": {"molecular_target": "T1, IRAK4 (Homo sapiens, UniProt Q9NWZ3)", "T1 sequence (Q9NWZ3 1-460)": "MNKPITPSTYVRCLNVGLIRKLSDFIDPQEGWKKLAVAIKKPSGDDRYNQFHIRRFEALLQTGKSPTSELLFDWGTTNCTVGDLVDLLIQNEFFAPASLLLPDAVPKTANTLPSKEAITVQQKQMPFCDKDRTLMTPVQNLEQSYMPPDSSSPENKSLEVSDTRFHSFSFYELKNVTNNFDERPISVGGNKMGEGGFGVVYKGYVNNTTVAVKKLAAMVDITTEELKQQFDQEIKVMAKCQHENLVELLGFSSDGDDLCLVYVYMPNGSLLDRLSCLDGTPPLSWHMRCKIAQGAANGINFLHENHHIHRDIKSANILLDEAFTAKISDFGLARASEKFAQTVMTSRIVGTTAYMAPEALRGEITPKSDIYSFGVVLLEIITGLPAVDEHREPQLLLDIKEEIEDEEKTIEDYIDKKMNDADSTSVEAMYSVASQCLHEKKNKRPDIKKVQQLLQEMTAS", "assay": "Hibit fluorescence detection of proteolysis (IRAK4-HiBiT in HEK293T cells)", "format": "cell-based", "design": "host or cells: HEK293T (ATCC)", "in_short": "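Degradation read-out: luminescence from lytic HiBiT detection (15 min, room temperature) after 24 h compound exposure (37 °C, 5% CO2) of HEK293T cells transiently expressing IRAK4 fused to a HiBiT tag. Data fitted to a bell-shaped four-parameter model giving two EC50 values.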"}, "IRAK4 [2]": {"molecular_target": "T2, IRAK4 (Mus musculus, UniProt Q8R4K2)", "T2 sequence (Q8R4K2 1-459)": "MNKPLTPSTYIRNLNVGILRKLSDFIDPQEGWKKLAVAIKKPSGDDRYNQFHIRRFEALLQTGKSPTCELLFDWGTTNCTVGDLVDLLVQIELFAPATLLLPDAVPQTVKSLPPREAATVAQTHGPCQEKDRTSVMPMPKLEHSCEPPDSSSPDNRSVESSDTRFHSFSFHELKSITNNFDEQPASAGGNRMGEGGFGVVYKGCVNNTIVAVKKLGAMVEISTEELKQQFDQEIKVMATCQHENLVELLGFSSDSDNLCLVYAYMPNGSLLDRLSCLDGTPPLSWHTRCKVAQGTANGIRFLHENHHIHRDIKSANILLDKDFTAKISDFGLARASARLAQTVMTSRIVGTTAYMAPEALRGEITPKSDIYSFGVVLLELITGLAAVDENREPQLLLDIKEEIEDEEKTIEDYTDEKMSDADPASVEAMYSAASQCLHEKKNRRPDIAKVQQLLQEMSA", "conditions": "Balb/c mice, 24 h", "experimental": "Experiment materials: Female Balb/c mice, 6-8 weeks old, 18-20 grams were used in the experiment and were provided by Vital River Laboratory Animal Technology Co., Ltd.\nExperimental method: The experiment started after the experimental animals were acclimated to the animal facility environment for 3 days. […] After 24 h, the animals were euthanized, and whole blood and spleen tissue were collected. The whole blood was temporarily placed on wet ice for subsequent PBMC extraction, and the spleen tissue was quickly placed in dry ice. PBMC extraction: 1.5 ml of red blood cell lysis buffer was added to the whole blood, and the obtained mixture was tapped with fingers for mixing, placed at room temperature in the dark for 5 min, and centrifuged at 400 g for 5 min, and the supernatant was discarded. The above steps were repeated twice. Then, 1.5 ml of DPBS was added and mixed uniformly. The mixture was centrifuged at 400 g for 5 min, and the obtained precipitate was PBMC. The PBMC was stored in a -80°C refrigerator for subsequent Western blot analysis. PBMC sample processing: The PBMC samples were placed on wet ice. 50 µL of lysis buffer was separately added to lyse the samples for 30 min, and the mixture was centrifuged at 12500 rpm for 15 min. The protein was quantified by the BCA method. […] The protein was quantified by BCA method. […]"}, "CYP3A4": {"molecular_target": "T3, CYP3A4 (Homo sapiens, UniProt P08684)", "T3 construct": "0.05 mg/mL liver microsomes (BioIVT, IHG) phosphate buffer solution; tissue BioIVT IHG; host or cells: human liver microsomes", "T3 sequence (P08684 whole entry, canonical isoform)": "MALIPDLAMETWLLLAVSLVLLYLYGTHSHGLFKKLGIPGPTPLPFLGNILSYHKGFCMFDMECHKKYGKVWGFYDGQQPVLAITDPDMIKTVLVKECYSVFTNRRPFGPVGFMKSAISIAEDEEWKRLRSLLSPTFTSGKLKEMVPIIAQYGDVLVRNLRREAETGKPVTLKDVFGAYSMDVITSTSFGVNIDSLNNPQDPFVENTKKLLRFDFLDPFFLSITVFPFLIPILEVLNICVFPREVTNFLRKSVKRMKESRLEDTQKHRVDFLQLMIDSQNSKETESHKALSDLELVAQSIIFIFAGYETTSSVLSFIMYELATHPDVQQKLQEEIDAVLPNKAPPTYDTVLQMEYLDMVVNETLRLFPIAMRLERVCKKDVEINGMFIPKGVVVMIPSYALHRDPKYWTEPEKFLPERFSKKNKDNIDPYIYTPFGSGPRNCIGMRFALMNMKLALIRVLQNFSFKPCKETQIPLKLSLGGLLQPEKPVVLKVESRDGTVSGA", "assay": "Inhibitory effect on human liver microsome CYP450 enzyme", "format": "in vitro ADME", "conditions": "liver microsomes", "description": "(§1) In this experiment, the compound, liver microsomes and different CYP isoform enzyme substrates were incubated in a 37°C water bath, the amount of substrate metabolites generated was measured, and the inhibitory effect of the compound of the present disclosure on CYP enzyme was evaluated based on the IC50 value.\n(§2) i. The compound was diluted with DMSO (Aladdin, catalog number: D103273-500ml) to concentrations of 0, 0.02, 0.06, 0.2, 0.6, 2 and 6 mM. The positive reference inhibitors for each CYP isoform and their concentrations are shown in Table 4 Table 4 Positive reference inhibitors for CYP isoform enzymes and their concentrations\n(§3) ii. Phosphate buffer (sigma: V900050-500G) was used to formulate the substrate solution for each CYP isoform enzyme. Table 5 The substrate and the concentration thereof for CYP isoform enzyme\n(§4) iii. Sample incubation. 1 µL of each concentration of the compound and positive reference inhibitor for CYP isoform enzyme were taken and placed into a 96-deep well plate (A-gen: P-1.0-RD-96-S), and 169 µL of 0.05 mg/mL liver microsomes (BioIVT, IHG) phosphate buffer solution (using 0.2 mg/mL liver microsomes for CYP2C19) was added. After uniform mixing, the plate was placed in a 37°C water bath (Shanghai Jinghong Experimental Equipment Co., Ltd., DK-500) with shaking for pre-incubation for 15 min. 10 µL of substrate (adding 1 µL of substrate for CYP3A4-Testosterone) and 20 µL of 10 mM NADPH phosphate buffer solution (MCE, HYF003/CS-4998) were added. After uniform mixing, the plate was incubated in a water bath with shaking for the following time: CYP1A2: 20 min, CYP2C9: 10 min, CYP2C19: 10 min, CYP2D6: 10 min, CYP3A4-Testosterone: 10 min, CYP3A4-Midazolam: 5 min. 400 µL of glacial acetonitrile/methanol (v/v, 1:1) containing an internal standard (500 nM tolbutamide, 5 nM terfenadine) was added to terminate the reaction. After centrifugation at 4000 rpm at 4°C for 40 min, the supernatant was taken and diluted with pure water according to the response of the metabolite of the substrate, and then UPLC-MS/MS (Sciex, Q-Trap 4500) was used for detection to obtain the peak area. The C18 chromatographic column was Kinetex 2.6u C18 100A (50 mm*3 mm).\n(§5) The inhibitory effect of the compound on each P450 enzyme in human liver microsomes was calculated as the percentage of reduced metabolite formation compared with the non-inhibitory control (i.e. blank DMSO). The IC50 value of the compound for each P450 enzyme in human liver microsomes was calculated with the logarithm of the remaining activity and the inhibitor concentration using Graphpad Prism software. The calculation equation was as follows: Peak area ratio = compound peak area / internal standard peak area [formula] [formula]\n(§6) In Graphpad Prism software, the IC50 value was calculated using the standard four-parameter curve fitting algorithm."}, "CYP2D6": {"molecular_target": "T4, CYP2D6 (Homo sapiens, UniProt P10635)", "T4 construct": "0.05 mg/mL liver microsomes (BioIVT, IHG) phosphate buffer solution; tissue BioIVT IHG; host or cells: human liver microsomes", "T4 sequence (P10635 whole entry)": "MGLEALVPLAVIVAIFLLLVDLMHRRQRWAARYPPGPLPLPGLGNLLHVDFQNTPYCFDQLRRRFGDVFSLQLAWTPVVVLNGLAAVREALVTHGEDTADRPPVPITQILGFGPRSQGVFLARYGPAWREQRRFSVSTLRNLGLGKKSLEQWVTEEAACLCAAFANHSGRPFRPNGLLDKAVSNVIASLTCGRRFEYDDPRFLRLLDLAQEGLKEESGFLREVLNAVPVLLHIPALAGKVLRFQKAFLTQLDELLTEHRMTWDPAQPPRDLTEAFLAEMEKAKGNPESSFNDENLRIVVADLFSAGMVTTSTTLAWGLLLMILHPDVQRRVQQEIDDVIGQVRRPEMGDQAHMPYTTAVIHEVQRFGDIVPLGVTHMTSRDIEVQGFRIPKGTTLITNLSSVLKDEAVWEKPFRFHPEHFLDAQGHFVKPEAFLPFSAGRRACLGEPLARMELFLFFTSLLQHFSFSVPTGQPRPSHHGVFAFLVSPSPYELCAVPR", "assay": "Inhibitory effect on human liver microsome CYP450 enzyme", "format": "in vitro ADME", "conditions": "human liver microsomes, substrate Dextromethorphan", "description": "as §1, §2, §3, §4, §5, §6"}}, "note": "Where two headings read alike, the source gives them in different places."}
{"smiles": "Cn1c(=O)n(C2CCC(=O)NC2=O)c2cccc(N3CCC(N4CCN(C[C@H]5CC[C@H](n6cc(-n7cc(-c8cnn9ccc(N%10CCC[C@H](O)C%10)nc89)nn7)c(C(F)F)n6)CC5)CC4)CC3)c21", "note": "(stereo partly shown) [Example 146]", "values": [{"measurement": "Dmax", "setting": "IRAK4 [1]; HEK-293T", "result": "> 80", "unit": "%"}, {"measurement": "DC50", "setting": "IRAK4 [1]; IRAK4-HiBiT, HEK293T cells, 24 h", "result": "< 0.0005", "unit": "µM"}, {"measurement": "expression level of IRAK4 protein in the spleen and PBMC", "setting": "IRAK4 [2]; single oral dose 10, 30, 100 mg/kg, compared with the blank control group", "result": "significantly inhibit"}, {"measurement": "proteolysis ability for spleen IRAK4", "setting": "IRAK4 [2]; single oral dose, three doses of 10, 30, and 100 mpk, compared with KT474", "result": "significantly superior to KT474"}, {"measurement": "IC50", "setting": "CYP3A4; substrate Midazolam, read-out: IC50 (µM) CYP3A4-M", "result": "> 30", "unit": "µM"}, {"measurement": "IC50", "setting": "CYP3A4; substrate Testosterone, read-out: IC50 (µM) CYP3A4-T", "result": "> 30", "unit": "µM"}, {"measurement": "IC50", "setting": "CYP2D6", "result": "> 30", "unit": "µM"}]}
